Assay results reported in patent US11364219B2, “Methods and pharmaceutical compositions for treating microbiome dysregulations associated with circadian clock disruption” (INSERM (INSTITUT NATIONAL DE LA SANTÉ ET DE LA RECHERCHE …, priority 2016, dated 2022).

Tests used:
gut microbiota [1] = test: 16S rRNA gene sequencing of gut microbiota, Nlrp6-deficient mice; type: in vivo, mouse; conditions: apigenin- versus vehicle-treated Nlrp6-deficient mice, ANOSIM p=0.283
Text: Mice and reagents. The Nlrp6-3xFlag-IRES-eGFP mouse was generated at the Institut Clinique de la Souris (Illkirch, France; further details available upon request). Age- and gender-matched Nlrp6-deficient (Nlrp6−/−) and control C57BL6/J mice had free access to a standard laboratory chow diet in a half-day light cycle exposure and temperature-controlled environment. All animal studies were approved by the local investigational review board (CEEA232009R) in an accredited establishment (N° B59-108) according to governmental guidelines N° 86/609/CEE. The experimental model of colitis was performed as previously described 10. […]
Microbiota analysis. […] Amplicons quantities were normalized using SEQUALPREP™ kit (Invitrogen) and pooled as a single library. […] Sequencing reads were primarily processed for quality control using the software MOTHUR. Forward and reverse reads were assembled to form contigs, reads not having perfectly matched specific primers and barcodes, having any ambiguous base and more than 8 homopolymers were removed from downstream analysis. Sequences not aligning to desired bacterial V3-V4 variable regions, suspected chimera and likely to be of non-bacterial origin were detected and removed. […] Indicator analysis was performed to identify prominent OTUs contributing to the differences between analysed groups. […] Statistical differences were determined by non-parametric Mann-Whitney Test.

colonic IECs [2] = test: Colonic IEC proliferation and apoptosis immunostaining (Ki67, caspase-3), wild-type mice; type: in vivo, mouse
Text: (§1) Mice and reagents. The Nlrp6-3xFlag-IRES-eGFP mouse was generated at the Institut Clinique de la Souris (Illkirch, France; further details available upon request). Age- and gender-matched Nlrp6-deficient (Nlrp6−/−) and control C57BL6/J mice had free access to a standard laboratory chow diet in a half-day light cycle exposure and temperature-controlled environment. All animal studies were approved by the local investigational review board (CEEA232009R) in an accredited establishment (N° B59-108) according to governmental guidelines N° 86/609/CEE. The experimental model of colitis was performed as previously described 10. Tissue and blood sampling was performed under LD conditions, with ZTO being the start of the light period (8 a.m.) and ZT12 the vespertinal crepuscule (8 p.m.). Apigenin (750 μg/mouse; Santa Cruz) was intraperitoneally given twice a week at ZT6 for 1 or 3 weeks period.
(§2) Immunohistochemistry, Immunofluorescence and histological analysis. Intestinal tissue was fixed in formalin, dehydrated in series of increasing concentration of alcohols and toluene before being embedded in paraffin. For immunohistochemistry, 5 μm-thick tissue sections were placed on Superfrost Plus slides (Thermo Scientific), incubated for 10 min at 60° C. and rehydrated through a series of graded alcohols and distilled water. Endogenous peroxidases were blocked by 3% hydrogen peroxide for 10 min. […]

colonic IECs [3] = test: Colonic IEC proliferation immunostaining (Ki67), Nlrp6-deficient mice; type: in vivo, mouse; conditions: three-week regimen of apigenin
Text: as §1, §2

DSS-induced colitis [4] = test: DSS colitis model in wild-type mice pre-treated with apigenin; type: in vivo, mouse
Text: as §1
Immunohistochemistry, Immunofluorescence and histological analysis. Intestinal tissue was fixed in formalin, dehydrated in series of increasing concentration of alcohols and toluene before being embedded in paraffin. For immunohistochemistry, 5 μm-thick tissue sections were placed on Superfrost Plus slides (Thermo Scientific), incubated for 10 min at 60° C. and rehydrated through a series of graded alcohols and distilled water. Endogenous peroxidases were blocked by 3% hydrogen peroxide for 10 min. Antigen retrieval was performed in citrate buffer (10 mM, pH 6) by steaming sections in a microwave oven for 20 min. Tissue sections were blocked with 5% BSA/PBS for 30 min at RT and primary Ab against either Ki67 (1:100, ab15580, Abcam), M2 Ab to Flag (1:100, F3165, Sigma) or cleaved caspase3 (1:50, 9661, Cell Signalling) was directly applied and incubated one hour at room temperature (RT) or overnight at 4° C. Slides were washed 3× in PBS before applying either secondary peroxidase-conjugated goat anti-rabbit IgG (1:100, Interchim) or peroxidase conjugated goat anti-mouse IgG (1:100, Interchim) Ab two hours at RT. Targeted antigens were visualized by using 3.3′-diaminobenzidine solution (BD Pharmingen) followed by nuclear counterstain with hematoxylin. Immunofluorescence staining procedure was done by incubation overnight at 4° C. of primary antibody against Lysozyme (A0099, Dako) at 1:1000 according to the protocol provided by Cell Signalling Technology. Secondary Ab (1:200, A11008, Life Technologies) was applied for 1 hour at RT followed by nuclear counterstain with DAPI. Tissue sections were covered by using ProLong® Gold Antifade reagent (Life Technologies). Microscopic analyses were performed by using the Zeiss Axioplan 2 imaging microscope, Axio Imager Z1 microscope, Axiovision software (all from Zeiss, Oberkochen, Germany), and ImageJ software. Staining of cryosections […] was performed to stain GFP on colonic tissue according to manufacturer's instructions (Cell Signaling Technology). Polyclonal rabbit anti-GFP Ab (1/1000, Molecular Probes) and monoclonal rat anti-integrin 6 Ab (1/100, BD Pharmingen) were used as primary Abs and incubated together on the samples for 3 hours at RT. Secondary AF488-coupled goat anti-rabbit Ab and AF594-coupled goat anti-rat Ab (1:500, Molecular Probes) applied for 1 hour at RT followed by counterstain with DAPI. Sections were covered with Mowiol.

clock machinery genes = test: Microarray and qRT-PCR gene expression after apigenin administration; type: in vivo, mouse
Text: as §1
Gene expression and microarray analysis. […] The resulting cDNA (equivalent to 5 ng of total RNA) was amplified using the SYBR Green real-time PCR kit and detected on a Stratagene Mx3005P (Agilent Technologies). […] Relative mRNA levels (2-Ct) were determined by comparing (a) the PCR cycle thresholds (Ct) for the gene of interest and Actb (ΔCt) and (b) ΔCt values for treated and control groups (ΔCt). […]

DSS-induced colitis [5] = test: DSS colitis model in Nlrp6-deficient mice pre-treated with apigenin; type: in vivo, mouse
Text: as §1
Immunohistochemistry, Immunofluorescence and histological analysis. Intestinal tissue was fixed in formalin, dehydrated in series of increasing concentration of alcohols and toluene before being embedded in paraffin. For immunohistochemistry, 5 μm-thick tissue sections were placed on Superfrost Plus slides (Thermo Scientific), incubated for 10 min at 60° C. and rehydrated through a series of graded alcohols and distilled water. Endogenous peroxidases were blocked by 3% hydrogen peroxide for 10 min. Antigen retrieval was performed in citrate buffer (10 mM, pH 6) by steaming sections in a microwave oven for 20 min. Tissue sections were blocked with 5% BSA/PBS for 30 min at RT and primary Ab against either Ki67 (1:100, ab15580, Abcam), M2 Ab to Flag (1:100, F3165, Sigma) or cleaved caspase3 (1:50, 9661, Cell Signalling) was directly applied and incubated one hour at room temperature (RT) or overnight at 4° C. Slides were washed 3× in PBS before applying either secondary peroxidase-conjugated goat anti-rabbit IgG (1:100, Interchim) or peroxidase conjugated goat anti-mouse IgG (1:100, Interchim) Ab two hours at RT. […]

gut microbiota [6] = test: 16S rRNA gene sequencing of gut microbiota, wild-type mice; type: in vivo, mouse
Text: as §1
Microbiota analysis. 16S rRNA gene variable region V3 and V4 was amplified using dual indexed fusion primers, in brief primers consist of illumina linker sequence, 12 base barcode sequence and heterogeneity spacer followed by either 16S rRNA gene specific forward (319F: […]; SEQ ID NO: 1) or reverse (806R: […]; SEQ ID NO: 2) primer sequences 29. […] Amplicons quantities were normalized using SEQUALPREP™ kit (Invitrogen) and pooled as a single library. […] Sequencing reads were primarily processed for quality control using the software MOTHUR. Forward and reverse reads were assembled to form contigs, reads not having perfectly matched specific primers and barcodes, having any ambiguous base and more than 8 homopolymers were removed from downstream analysis. Sequences not aligning to desired bacterial V3-V4 variable regions, suspected chimera and likely to be of non-bacterial origin were detected and removed. […] Indicator analysis was performed to identify prominent OTUs contributing to the differences between analysed groups. Non parametric Shannon index of diversity was calculated as a measure of alpha diversity index. Statistical differences were determined by non-parametric Mann-Whitney Test.

Csnk2 = Csnk2 inhibitors listed as examples; cited from earlier work
[7] = tested on: mouse embryonic fibroblasts (MEFs); conditions: U0126 treatment, data not shown
[8] = wild-type mice, DSS, apigenin administration

O=c1cc(-c2ccc(O)cc2)oc2cc(O)cc(O)c12 [apigenin, 4′,5,7-trihydroxyflavone]
global changes in the composition of the gut microbiota (gut microbiota [1]): failed to observe global changes | number of caspase-3 positive IECs (colonic IECs [2]; three-week regimen of apigenin): without any change | IEC proliferation (Ki67 Ab staining) (colonic IECs [2]; three-week regimen of apigenin (750 μg/mouse, twice a week)): lowered IEC proliferation | anti-proliferative effect (Ki67) (colonic IECs [3]): abrogated | anti-inflammatory effect (DSS-induced colitis [4]; mice housed in darkness for three circadian cycles during DSS exposure): no anti-inflammatory effect | body-weight loss (DSS-induced colitis [4]; wild-type mice on LD cycles, apigenin 3 weeks (750 μg/mouse, twice a week) before 2% DSS): less severe body-weight loss | colon length (DSS-induced colitis [4]; [8]): greater colon length | disease-activity index (DSS-induced colitis [4]; [8]): lower disease-activity index | infiltration of inflammatory cells (H&E-stained colon sections) (DSS-induced colitis [4]; wild-type mice, DSS, versus controls): reduced infiltration of inflammatory cells | colonic transcript levels of several clock machinery genes (qRT-PCR) (clock machinery genes; apigenin administration, through Nlrp6): significantly influenced | genes differentially expressed (microarray) (clock machinery genes; wild-type mice, Logfc of 1.5, upon apigenin administration): 54 | wasting disease (body weight loss) (DSS-induced colitis [5]; apigenin 3 weeks before 2% DSS): failed to improve wasting disease | colon length (DSS-induced colitis [5]; apigenin, DSS): did not alter colon length | inflammation in histological analysis (DSS-induced colitis [5]; apigenin, DSS): had no effect on inflammation | Clostridium sensu stricto and unclassified Ruminococcacceae (gut microbiota [6]; apigenin treatment in wild-type mice): reduction | genera derived from Bacteroidetes (Alistipes, Parasatuerlla, Bacteroides) (gut microbiota [6]; apigenin-induced changes among bacterial OTUs): expansion | gut microbiota composition versus controls (gut microbiota [6]; apigenin-treated wild-type mice, ANOSIM on Jaccard distances, p=0.015): markedly different

Brc1c(Br)c(Br)c2[nH]cnc2c1Br [TBI, 4,5,6,7-1H-tetrabromobenzimidazole]
Ki (Csnk2): 300 nM

O=C(O)c1c(Br)c(Br)c(Br)c(Br)c1-c1c2ccc(=O)cc-2oc2cc(O)ccc12 [compound 35, 2,3,4,5-tetrabromo-6-(6-hydroxy-3-oxo-3H-xanthen-9-yl)-benzoic acid]
IC50 (Csnk2): 80 nM

O=C(O)/C=C/c1ccc[c]([Sb](=[O])([OH])[OH])c1 [compound 10, (E)-3-(3-stibonophenyl)prop-2-enoic acid]
IC50 (Csnk2): 150 nM

O=c1c2c(O)cccc2oc2c([N+](=O)[O-])ccc(O)c12 [MNX, 1,8-dihydroxy-4-nitro-xanthen-9-one]
Ki (Csnk2): 800 nM

O=C(O)/C=C/c1cc(Br)c(Br)c(Br)c1Br [TBCA, (E)-3-(2,3,4,5-tetrabromophenyl)acrylic acid]
Ki (Csnk2): 77 nM

Cc1cc(O)c2c(c1)C(=O)c1cc(O)cc(O)c1C2=O [emodin, 6-methyl-1,3,8-trihydroxyanthraquinone]
Ki (Csnk2): 1500 nM

O=C(O)Cc1c2ccccc2n2c1[nH]c(=O)c1ccccc12 [IQA, 5-oxo-5,6-dihydroindolo-(1,2-a) quinazolin-7-yl acetic acid]
IC50 (Csnk2): 390 nM

N#CC(=C(/N)Sc1ccccc1N)/C(C#N)=C(\N)Sc1ccccc1N [U0126]
growth rate of treated wild-type MEFs versus similarly treated Nlrp6-deficient MEFs [7]: comparable

CC(C(=O)O)N1C(=O)c2c(I)c(I)c(I)c(I)c2C1=O (stereo not shown) [TID46, 2-(4,5,6,7-tetraiodo-1,3-dioxo-1,3-dihydro-2Hisoindol-2-yl)propanoic acid]
IC50 (Csnk2): 150 nM

O=C1C=C2CC3(O)COc4c(ccc(O)c4O)C3=C2C=C1O (stereo not shown) [hematein, 3,4,6a,10-tetrahydroxy-6,7-dihydroindeno[2,1-c] chromen-9-one]
IC50 (Csnk2): 550 nM

O=C(O)c1c[nH]c2c(Cl)cc(Cl)c(Cl)c2c1=O [compound 7, 5,6,8-trichloro-4-oxo-1,4-dihydroquinoline-3-carboxylic acid]
Ki (Csnk2): 60 nM

O=C(O)c1ccc2c(c1)nc(Nc1cccc(Cl)c1)c1ccncc12 [CX-4945, 5-(3-Chloro-phenylamino)-benzo[c] [2,6] naphthyridine-8-carboxylicacid]
IC50 (Csnk2): 2 nM

Cc1ccc2c(c1S(=O)(=O)O)SC(c1ccc3c(c1)SC(c1ccc(N(C)C)cc1)N3C)N2C (stereo not shown) [compound 1, 2′-(4-Dimethylamino-phenyl)-3,6,3′-trimethyl-[2,6′]bibenzothiazolyl-7-sulfonic acid]
IC50 (Csnk2): 500 nM

O=C(O)c1cc(Br)c(Br)c(Br)c1 [compound 26, 3,4,5 tribromobenzoic acid]
IC50 (Csnk2): 640 nM
